Data as given in patent US20130287890A1, “INHIBITOR OF THE PRODUCTION OF ADVANCED GLYCATION END PRODUCTS” (UENO FINE CHEMICALS INDUSTRY, LTD., priority 2012, published 2013).

Experiments:
CML = test: Quantitative determination of CML after reaction at 37° C. for 42 days; assay type: biochemical; conditions: for CML: 37° C., 42 days
Method: (§1) Amino acid, carbohydrates and a phosphate buffer solution were charged in a 50 mL polypropylene centrifuge tube in each amount shown in Table 10, followed by sealing and stirring, and then the mixture was reacted in an incubator at 37° C. for 42 days. Next, the reactant was filtered through a 0.2 μm filter and the obtained filtrate was used as a sample. Amino acid and carbohydrates used are as follows:
Using CircuLex CML/Nε-(carboxymethyl) lysine ELISA kit (manufactured by CycLex Co., Ltd.), quantitative determination of CML was performed in the following manner. Thirty (30) or more minutes before use, reagents and CML solid-phase wells were put to room temperature. By adding 1 mL of ultrapure water (Milli-Q water) to a CML-HSA standard powder, a master standard was prepared. By performing dilution with standard dilution buffers, standards 1 to 7 were prepared. The sample was diluted as necessary with sample dilution buffers. A CML-HSA standard and 60 μL of the sample were dispensed into a 96-well plate, which is not an accessory to the kit. Next, ultrapure water (Milli-Q water) was added to a first antibody powder, and by diluting with sample dilution buffers, a first antibody solution was prepared; 60 μL of the antibody solution was dispensed into the plate and mixed. After 100 μL of the mixture was added to CML solid-phase wells, the mixture was reacted at 25° C. for 1 hour while being shaken at 300 rpm. Then, the reaction solution was discarded, and 350 μL of rinsing fluid was dispensed to wash the plate. The washing was performed for 4 times. After liquid on the plate was removed, 100 μL of a second antibody solution was dispensed and reacted at 25° C. for 1 hour while being shaken at 300 rpm. The reaction solution was discarded, and the plate was washed for 4 times with 350 μL of rinsing fluid again. Liquid on the plate was removed, and 100 μL of a color coupler was dispensed. Then, the solution was left to stand for 10 minutes under a light shielding condition while being shaken at 300 rpm. Finally, 100 μL of a reaction stop solution was dispensed, and within 30 minutes after the dispensing, measurement was performed at main wavelength 450 nm/reference wavelength 595 nm using a micro-plate reader. The concentration of CML was determined using the calibration curve of a CML standard solution, based on measurement values of the sample.
(§2) Biological proteins, carbohydrates and a phosphate buffer solution are charged in a 50 mL polypropylene centrifuge tube in each amount shown in Table 12, followed by sealing and stirring, and then the mixture was reacted in an incubator at 37° C. for 42 days. Next, the reactant was fractionated by centrifugation at 3,000 rpm for 3 hours using an ultrafiltration unit (VIVA SPIN 20, manufactured by Sartorius Corporation). The obtained low molecular weight fraction was used as a sample for determination of 3-DG, while the obtained high molecular weight fraction was used as a sample for the determination of fluorescent AGEs, pentosidine, CML, RAGE agonist activity and RAGE antagonist activity. Biological proteins and carbohydrates used are as follows:
(§3) In the same manner as in Test Example 4, except that the low molecular weight fraction prepared as mentioned above was used as a sample, quantitative determination of 3-DG was performed. In the same manner as in Test Example 4, except that the high molecular weight fraction was filtered through a 0.2 μm filter and the filtrate was used as a sample, fluorescent AGEs, pentosidine, CML, RAGE agonist activity and RAGE antagonist activity were evaluated.
Collagen, carbohydrates and a phosphate buffer solution were charged in a 50 mL polypropylene centrifuge tube in each amount shown in Table 14, followed by sealing and stirring, and then the mixture was reacted in an incubator at 37° C. for 42 days. […]

human RAGE = molecular target: T1, human RAGE (Homo sapiens, UniProt Q15109); test: RAGE antagonist activity of reaction samples (37° C., 42 days) mixed with AGE-BSA, NF-κB luciferase assay in C6 glioma cells; assay type: cell-based, rat C6 glioma cells expressing human RAGE
T1 construct: human RAGE plasmid (including full-length human RAGE cDNA); expressed in transfected cells; host or cells: C6 glioma cells carrying pNF-κB-Luc plasmid and human RAGE plasmid
T1 sequence (Q15109 23-404): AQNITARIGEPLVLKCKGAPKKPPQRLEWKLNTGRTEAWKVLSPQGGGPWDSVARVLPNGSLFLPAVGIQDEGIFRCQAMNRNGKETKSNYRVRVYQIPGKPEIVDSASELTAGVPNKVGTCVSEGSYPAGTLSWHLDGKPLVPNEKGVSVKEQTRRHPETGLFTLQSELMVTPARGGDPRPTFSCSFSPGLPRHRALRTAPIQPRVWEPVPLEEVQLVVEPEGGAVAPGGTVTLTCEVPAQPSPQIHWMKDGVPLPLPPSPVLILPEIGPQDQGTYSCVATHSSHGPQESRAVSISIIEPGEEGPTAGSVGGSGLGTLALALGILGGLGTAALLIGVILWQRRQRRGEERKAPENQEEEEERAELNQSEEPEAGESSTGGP
Method: as §1
Using Luciferase Assay System (manufactured by Promega Corporation), evaluation of RAGE antagonist activity was performed. (Day 1) According to the methods disclosed in Diabetes, 2006, vol. 55, pp. 2510-2522, C6 glioma cells into which pNF-κB-Luc plasmid (manufactured by Stratagene Corporation) and human RAGE plasmid (including full-length human RAGE cDNA) have been introduced were seeded at 100 μL/well into a 96-well plate and cultured in a CO2 incubator until the cells were confluent. For the culture, 10% FBS/DMEM medium was used. (Day 2) The medium was removed, and after wells were washed with 300 μL of serum-free DMEM medium, 100 μL of 0.1% FBS/DMEM medium was slowly added. Then, the medium was incubated overnight in a CO2 incubator. (Day 3) The sample was diluted using the medium, and 50 μL of the diluted sample, AGE-BSA in which AGE was formed with glyceraldehydes (50 μg/mL) as a control, and the mixture of diluted sample and AGE-BSA were added to wells. After incubation in a CO2 incubator for 4 hours, the medium was removed and wells were washed 2 times with 300 μL of PBS (−). Then, 25 μL of 1× lysis buffer was added on ice. After the plate was shaken for 15 seconds, 20 μL of lysate was charged in a new white plate. Further 100 μL of a luciferase assay reagent was added, and a […] was measured by a luminometer. Using 5 μL of lysate, quantitative determination of protein was also performed.
as §2, §3
Collagen, carbohydrates and a phosphate buffer solution were charged in a 50 mL polypropylene centrifuge tube in each amount shown in Table 14, followed by sealing and stirring, and then the mixture was reacted in an incubator at 37° C. for 42 days. Next, the reactant was fractionated by centrifugation at 3,000 rpm for 3 hours using an ultrafiltration unit (VIVA SPIN 20, manufactured by Sartorius Corporation). The obtained low molecular weight fraction was used as a sample for determination of 3-DG. Meanwhile, 0.4 g of a high molecular weight fraction and 8 mL of 6N hydrochloric acid were charged in an ampule and the air in the ampule was replaced with nitrogen, and then hydrolysis was performed at 110° C. for 16 hours in a heat block. After reaction, 8 mL of 5N sodium hydroxide was added, and pH was adjusted using 1N hydrochloric acid and 1N sodium hydroxide to make pH within a range of 7.2 to 7.6. […]

[1] = Test Example 4, amino acid 0.4 g + carbohydrate 1.8 g
[2] = Test Example 5, bovine serum albumin 0.4 g + carbohydrate 1.8 g
[3] = Test Example 5, human serum albumin 0.4 g + carbohydrate 1.8 g
[4] = Test Example 5, γ-globulin 0.4 g + carbohydrate 1.8 g
[5] = Test Example 6, collagen 0.015 g + carbohydrate 1.8 g, hydrolysed high molecular weight fraction
[6] = Test Example 4, amino acid + carbohydrate, mixture of sample and AGE-BSA, amount of protein 100 μg/mL, relative to control (AGE-BSA) = 1
[7] = Test Example 5, bovine serum albumin + carbohydrate, mixture of sample and AGE-BSA, protein 100 μg/mL, relative to control (AGE-BSA) = 1
[8] = Test Example 5, human serum albumin + carbohydrate, mixture of sample and AGE-BSA, protein 100 μg/mL, relative to control (AGE-BSA) = 1
[9] = Test Example 5, γ-globulin + carbohydrate, mixture of sample and AGE-BSA, protein 10 μg/mL, relative to control (AGE-BSA) = 1
[10] = Test Example 6, collagen + carbohydrate, mixture of sample and AGE-BSA, protein 10 μg/mL, relative to control (AGE-BSA) = 1
[11] = Test Example 5, bovine serum albumin, human serum albumin, γ-globulin, compared with sections containing glucose
[12] = Test Example 6, collagen, compared with sections containing glucose and fructose

Row | RAGE antagonist activity (human RAGE; [6]) | RAGE antagonist activity (human RAGE; [7]) | RAGE antagonist activity (human RAGE; [8]) | RAGE antagonist activity (human RAGE; [9]) | RAGE antagonist activity (human RAGE; [10]) | RAGE antagonist activity (human RAGE; Test Example 4, amino acid, compared with the test section 2 containing fructose) | RAGE antagonist activity (human RAGE; [11]) | RAGE antagonist activity (human RAGE; Test Example 5, test sections 3 and 6 (bovine serum albumin, human serum albumin), compared with sections containing fructose) | RAGE antagonist activity (human RAGE; [12]) | Compound | CML (CML; [1]) | CML (CML; [2]) | CML (CML; [3]) | CML (CML; [4]) | CML (CML; [5]) | production of CML (CML; Test Example 4, amino acid, compared with sections containing glucose and fructose) | production of CML (CML; Test Example 5, bovine serum albumin, human serum albumin, γ-globulin, compared with sections containing fructose) | production of CML (CML; [11]) | production of CML (CML; [12])
1 | 0.56 | 1.08 | 1.20 | 1.07 | 2.85 |  |  |  |  | O=C[C@H](O)[C@@H](O)[C@H](O)[C@H](O)CO [Glucose] | 1197 nmol/1 mL of reaction solution | 309 nmol/1 mL of reaction solution | 1749 nmol/1 mL of reaction solution | 3628 nmol/1 mL of reaction solution | 475 nmol/1 mL of reaction solution |  |  |  | 
2 | 0.66 | 1.08 | 1.01 | 0.90 | 1.22 | decreased | decreased | decreased | decreased | OC[C@@H](O)[C@@H](O)[C@H](O)[C@@H](O)CO [Sorbitol] | 57 nmol/1 mL of reaction solution | 10 nmol/1 mL of reaction solution | 69 nmol/1 mL of reaction solution | 29 nmol/1 mL of reaction solution | 445 nmol/1 mL of reaction solution | decreased | decreased | decreased | decreased

Row | Compound | RAGE antagonist activity (human RAGE; [6]) | RAGE antagonist activity (human RAGE; [7]) | RAGE antagonist activity (human RAGE; [8]) | RAGE antagonist activity (human RAGE; [9]) | RAGE antagonist activity (human RAGE; [10]) | RAGE antagonist activity (human RAGE; Test Example 4, amino acid, compared with the test section 2 containing fructose) | RAGE antagonist activity (human RAGE; [11]) | RAGE antagonist activity (human RAGE; Test Example 5, test sections 3 and 6 (bovine serum albumin, human serum albumin), compared with sections containing fructose) | RAGE antagonist activity (human RAGE; [12]) | CML (CML; [1]) | CML (CML; [2]) | CML (CML; [3]) | CML (CML; [4]) | CML (CML; [5]) | production of CML (CML; Test Example 4, amino acid, compared with sections containing glucose and fructose) | production of CML (CML; Test Example 5, bovine serum albumin, human serum albumin, γ-globulin, compared with sections containing fructose) | production of CML (CML; [11]) | production of CML (CML; [12])
3 | O=C(CO)[C@@H](O)[C@H](O)[C@H](O)CO [Fructose] | 0.70 | 1.15 | 1.33 | 1.08 | 2.49 |  |  |  |  | 519 nmol/1 mL of reaction solution | 1046 nmol/1 mL of reaction solution | 4626 nmol/1 mL of reaction solution | 3813 nmol/1 mL of reaction solution | 452 nmol/1 mL of reaction solution |  |  |  | 
